Results: PMC10581193 (Microbiology Spectrum, 2023)
Read-outs that look alike come from different tables or passages of the source.

Columns and labels:
DprE1 = DprE1 (Mycobacterium tuberculosis, UniProt P9WJF1, Y314H); design: species or system M. tuberculosis H37Ra
Y48 = format: cell-based, M. tuberculosis
Y198 = format: cell-based, M. tuberculosis
Y17 = format: cell-based, M. tuberculosis

Row | Compound | Drug resistance of clinical isolate (Y48; strain Y48) | Drug resistance of clinical isolate (Y198; strain Y198) | further results
1 | Cc1nc(C)c(CN2CCOc3c(C(=O)NCC(F)(F)F)cc(C4CC4)cc32)nc1C [B18, 6-cyclopropyl-N-(2,2,2-trifluoroethyl)-4-((3,5,6-trimethylpyrazin-2-yl)methyl)-3,4-dihydro-2H-benzo[b][1,4]oxazine-8-carboxamide] | – | – | Amino-acid substitution (DprE1): Tyr→His
2 | CC[C@@H](CO)NCCN[C@@H](CC)CO [EMB, ethambutol] | R | R | –
3 | NNC(=O)c1ccncc1 [INH, isoniazid] | R | R | Drug resistance of clinical isolate (Y17; strain Y17): R
4 | Nc1ccc(C(=O)O)c(O)c1 [PA, p-aminosalicylic acid] | S | R | –
5 | NC(=O)c1cnccn1 [PZA, pyrazinamide] | – | R | –
6 | CO[C@H]1/C=C/O[C@@]2(C)Oc3c(C)c(O)c4c(c3C2=O)C2=NC3(CCN(CC(C)C)CC3)NC2=C(NC(=O)/C(C)=C\C=C\[C@H](C)[C@H](O)[C@@H](C)[C@@H](O)[C@@H](C)[C@H](OC(C)=O)[C@@H]1C)C4=O [RFB, rifabutin] | – | R | –
7 | CO[C@H]1/C=C/O[C@@]2(C)Oc3c(C)c(O)c4c(O)c(c(/C=N/N5CCN(C6CCCC6)CC5)c(O)c4c3C2=O)NC(=O)/C(C)=C\C=C\[C@H](C)[C@H](O)[C@@H](C)[C@@H](O)[C@@H](C)[C@H](OC(C)=O)[C@@H]1C [RFT, rifapentine] | – | R | –
8 | CO[C@H]1/C=C/O[C@@]2(C)Oc3c(C)c(O)c4c(O)c(c(/C=N/N5CCN(C)CC5)c(O)c4c3C2=O)NC(=O)/C(C)=C\C=C\[C@H](C)[C@H](O)[C@@H](C)[C@@H](O)[C@@H](C)[C@H](OC(C)=O)[C@@H]1C [RMP, rifampicin] | – | – | Drug resistance of clinical isolate (Y17): R; Drug resistance of clinical isolate (Y48): R; Drug resistance of clinical isolate (Y198): R
9 | [H]/N=C(/N)N[C@H]1[C@H](O)[C@@H](O)[C@H](O[C@@H]2O[C@@H](C)[C@](O)(C=O)[C@H]2O[C@@H]2O[C@@H](CO)[C@H](O)[C@@H](O)[C@@H]2NC)[C@@H](N/C(N)=N\[H])[C@@H]1O [SM, streptomycin] | – | R | –
10 | COc1ncnc(Cn2cc(C(=O)NCCO)c3ncc(C)cc32)c1C [TBA-7371, reference compound] | – | – | Amino-acid substitution (DprE1): Tyr→His
